Here are results for 22 compounds from patent publication US8063071B2 (GlaxoSmithKline, LLC, priority 2007, dated 2011).

The target of test [1] is T1, Recombinant human IKKβ (residues 1-737) (Homo sapiens, UniProt O14920).
T1 construct: Recombinant human IKKβ (residues 1-737); GST (C); made in house
T1 sequence (O14920 1-737): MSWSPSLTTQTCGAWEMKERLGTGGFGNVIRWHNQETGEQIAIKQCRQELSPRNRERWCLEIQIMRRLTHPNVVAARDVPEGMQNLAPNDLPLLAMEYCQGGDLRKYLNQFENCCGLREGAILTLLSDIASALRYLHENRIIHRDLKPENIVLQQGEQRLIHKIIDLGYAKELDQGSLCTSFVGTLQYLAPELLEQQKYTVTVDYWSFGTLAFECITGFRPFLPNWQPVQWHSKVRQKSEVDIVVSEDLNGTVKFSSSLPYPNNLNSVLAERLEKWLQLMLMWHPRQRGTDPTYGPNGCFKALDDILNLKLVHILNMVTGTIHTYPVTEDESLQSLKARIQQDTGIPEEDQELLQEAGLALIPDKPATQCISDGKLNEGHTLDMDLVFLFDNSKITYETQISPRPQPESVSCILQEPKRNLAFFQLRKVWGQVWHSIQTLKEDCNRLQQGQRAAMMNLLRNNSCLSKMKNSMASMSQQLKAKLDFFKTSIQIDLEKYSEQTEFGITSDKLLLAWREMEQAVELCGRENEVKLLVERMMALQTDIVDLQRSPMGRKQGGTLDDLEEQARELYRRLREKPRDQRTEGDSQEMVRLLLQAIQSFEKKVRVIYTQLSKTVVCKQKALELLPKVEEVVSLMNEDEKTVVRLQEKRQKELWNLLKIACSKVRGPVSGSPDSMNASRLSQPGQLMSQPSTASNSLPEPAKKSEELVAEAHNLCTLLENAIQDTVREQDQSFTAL
In words: IKK2 assay (TR-FRET). The note with it: ATP 1 μM final, read-out: pIC50 against IKK2 (converted). The class given is biochemical. A digest of the protocol: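 Baculovirus-expressed C-terminal GST-tagged IKKβ (0.5-5 nM final) in HEPES pH 7.4, MgCl2, CHAPS, DTT, BSA with 1.7% DMSO; 25 nM GST-IB substrate and 1 μM ATP, 15 min at room temperature. EDTA stop; phospho-Ser32/36 detected by Eu-antibody/APC-anti-GST TR-FRET, 665/620 nm ratio.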
(In general: Time-resolved FRET reads energy transfer from a long-lived donor to a nearby acceptor.)

Test [2] concerns human monocyte stimulated cytokine production (TNF-α). Kind of test: Monocyte assay (LPS-stimulated TNF-α production). It counts as cell-based. To be noted: 24 h, 200 ng/mL LPS, TNF-α by ELISA. The method, boiled down: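 Human CD14+ monocytes were purified from blood and plated at 1×10^6 cells/mL in RPMI 1640 with 10% FBS. Compound was added 30 min before stimulation with 200 ng/mL LPS (0.1% DMSO final), followed by 24 hrs at 37 C. Supernatant TNF-α was measured by ELISA, and viability by trypan blue exclusion.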
On the technique in general: In an ELISA, binding on a coated surface is turned into a signal by an enzyme label.

Where a name gives a salt, the structure may show the parent alone.

For `CCS(=O)(=O)N1CCC(c2c[nH]c3c(C(N)=O)cc(-c4cccc(C(C)NC(C)C)c4)cc23)CC1` (centres unmarked) [Example 293, 3-[1-(ethylsulfonyl)-4-piperidinyl]-5-(3-{1-[(1-methylethyl)amino]ethyl}phenyl)-1H-indole-7-carboxamide trifluoroacetate], the IC50 is at most 10 µM in test [1] and at most 1.5 µM in test [2].
As to `CCS(=O)(=O)N1CCC(c2c[nH]c3c(C(N)=O)cc(-c4cccc(C(C)NCC(C)C)c4)cc23)CC1` (centres unmarked) [Example 294, 3-[1-(ethylsulfonyl)-4-piperidinyl]-5-(3-{1-[(2-methylpropyl)amino]ethyl}phenyl)-1H-indole-7-carboxamide trifluoroacetate], the IC50 in test [1] is at most 10 µM; in test [2] it was at most 1.5 µM.
On the same counts, the results for `CCS(=O)(=O)N1CCC(c2c[nH]c3c(C(N)=O)cc(-c4cccc(C(C)NC5CCC5)c4)cc23)CC1` (centres unmarked) [Example 295, 5-{3-[1-(cyclobutylamino)ethyl]phenyl}-3-[1-(ethylsulfonyl)-4-piperidinyl]-1H-indole-7-carboxamide trifluoroacetate] are at most 10 µM and at most 1.5 µM.
With `CCS(=O)(=O)N1CCC(c2c[nH]c3c(C(N)=O)cc(-c4cccc(C(C)N5CCCC5)c4)cc23)CC1` (centres unmarked) [Example 296, 3-[1-(ethylsulfonyl)-4-piperidinyl]-5-{3-[1-(1-pyrrolidinyl)ethyl]phenyl}-1H-indole-7-carboxamide trifluoroacetate], the values for the IC50 in test [1] and in test [2] were at most 10 µM and at most 1.5 µM, respectively.
On to `CCS(=O)(=O)N1CCC(c2c[nH]c3c(C(N)=O)cc(-c4cccc(C5CSCCN5)c4)cc23)CC1` (centres unmarked) [Example 297, 3-[1-(ethylsulfonyl)-4-piperidinyl]-5-[3-(3-thiomorpholinyl)phenyl]-1H-indole-7-carboxamide trifluoroacetate], for which the IC50 in test [1] is at most 10 µM; in test [2] it was at most 1.5 µM.
Take `CCS(=O)(=O)N1CCC(c2c[nH]c3c(C(N)=O)cc(-c4ccc(C5CNCCN5)s4)cc23)CC1` (centres unmarked) [Example 298, 3-[1-(ethylsulfonyl)-4-piperidinyl]-5-[5-(2-piperazinyl)-2-thienyl]-1H-indole-7-carboxamide trifluoroacetate]: the IC50 in test [1] is at most 10 µM; in test [2], at most 1.5 µM.
On the same counts, the results for `CCS(=O)(=O)N1CCC(c2c[nH]c3c(C(N)=O)cc(-c4ccc(C5CNCCN5)cc4)cc23)CC1` (centres unmarked) [Example 299, 3-[1-(ethylsulfonyl)-4-piperidinyl]-5-[4-(2-piperazinyl)phenyl]-1H-indole-7-carboxamide trifluoroacetate] are at most 10 µM and over 1 µM.
Take `CCS(=O)(=O)N1CCC(c2c[nH]c3c(C(N)=O)cc(-c4cccc(C5CNCCN5)c4)cc23)CC1` (centres unmarked) [Example 300, 3-[1-(ethylsulfonyl)-4-piperidinyl]-5-[3-(2-piperazinyl)phenyl]-1H-indole-7-carboxamide trifluoroacetate]: the results for the IC50 in test [1] and in test [2] were at most 10 µM and over 1 µM, respectively.
On to `CCS(=O)(=O)N1CCC(c2c[nH]c3c(C(N)=O)cc(-c4ccc(N5CCOCC5)nn4)cc23)CC1` [Example 301, 3-[1-(ethylsulfonyl)-4-piperidinyl]-5-[6-(4-morpholinyl)-3-pyridazinyl]-1H-indole-7-carboxamide trifluoroacetate], for which the IC50 was at most 10 µM in test [1] and over 1 µM in test [2].
As to `CCS(=O)(=O)N1CCC(c2c[nH]c3c(C(N)=O)cc(-c4ccc(N5CCCC5)nn4)cc23)CC1` [Example 302, 3-[1-(ethylsulfonyl)-4-piperidinyl]-5-[6-(1-pyrrolidinyl)-3-pyridazinyl]-1H-indole-7-carboxamide trifluoroacetate], the IC50 is at most 10 µM in test [1] and over 1 µM in test [2].
Consider `CCS(=O)(=O)N1CCC(c2c[nH]c3c(C(N)=O)cc(-c4ccccc4CNC)cc23)CC1` [Example 303, 3-[1-(ethylsulfonyl)-4-piperidinyl]-5-{2-[(methylamino)methyl]phenyl}-1H-indole-7-carboxamide trifluoroacetate], for which the IC50 in test [1] was at most 10 µM; in test [2] it was over 1 µM.
For the compound `CCS(=O)(=O)N1CCC(c2c[nH]c3c(C(N)=O)cc(-c4cccc(CNCc5cccs5)c4)cc23)CC1` [Example 304, 3-[1-(ethylsulfonyl)-4-piperidinyl]-5-(3-{[(2-thienylmethyl)amino]methyl}phenyl)-1H-indole-7-carboxamide trifluoroacetate], the values for the IC50 in test [1] and in test [2] were at most 10 µM and at most 1.5 µM, respectively.
Consider `CCS(=O)(=O)N1CCC(c2c[nH]c3c(C(N)=O)cc(-c4cccc(CNCc5ccc(C)o5)c4)cc23)CC1` [Example 305, 3-[1-(ethylsulfonyl)-4-piperidinyl]-5-[3-({[(5-methyl-2-furanyl)methyl]amino}methyl)phenyl]-1H-indole-7-carboxamide trifluoroacetate], for which the results for the IC50 in test [1] and in test [2] were at most 10 µM and at most 1.5 µM, respectively.
`CCS(=O)(=O)N1CCC(c2c[nH]c3c(C(N)=O)cc(-c4cccc(CNC[C@H]5CCCO5)c4)cc23)CC1` [Example 306, 3-[1-(ethylsulfonyl)-4-piperidinyl]-5-[3-({[(2R)-tetrahydro-2-furanylmethyl]amino}methyl)phenyl]-1H-indole-7-carboxamide trifluoroacetate]: the IC50 in test [1] is at most 10 µM; in test [2], at most 1.5 µM.
`CCS(=O)(=O)N1CCC(c2c[nH]c3c(C(N)=O)cc(-c4cccc(CNC[C@@H]5CCCO5)c4)cc23)CC1` [Example 307, 3-[1-(ethylsulfonyl)-4-piperidinyl]-5-[3-({[(2S)-tetrahydro-2-furanylmethyl]amino}methyl)phenyl]-1H-indole-7-carboxamide trifluoroacetate]: the IC50 in test [1] was at most 10 µM; in test [2], at most 1.5 µM.
Turning to `CCS(=O)(=O)N1CCC(c2c[nH]c3c(C(N)=O)cc(-c4cccc(CNCC(C)(C)C)c4)cc23)CC1` [Example 308, 5-(3-{[(2,2-dimethylpropyl)amino]methyl}phenyl)-3-[1-(ethylsulfonyl)-4-piperidinyl]-1H-indole-7-carboxamide trifluoroacetate], the IC50 in test [1] was at most 10 µM; in test [2] it was at most 1.5 µM.
On to `CCC(C)CNCc1cccc(-c2cc(C(N)=O)c3[nH]cc(C4CCN(S(=O)(=O)CC)CC4)c3c2)c1` (centres unmarked) [Example 309, 3-[1-(ethylsulfonyl)-4-piperidinyl]-5-(3-{[(2-methylbutyl)amino]methyl}phenyl)-1H-indole-7-carboxamide], for which the IC50 is at most 10 µM in test [1] and at most 1.5 µM in test [2].
Consider `CC[C@H](C)CNCc1cccc(-c2cc(C(N)=O)c3[nH]cc(C4CCN(S(=O)(=O)CC)CC4)c3c2)c1` [Example 310, 3-[1-(ethylsulfonyl)-4-piperidinyl]-5-[3-({[(2S)-2-methylbutyl]amino}methyl)phenyl]-1H-indole-7-carboxamide], for which the IC50 is at most 10 µM in test [1] and at most 1.5 µM in test [2].
Turning to `CCS(=O)(=O)N1CCC(c2c[nH]c3c(C(N)=O)cc(-c4cccc(CN[C@H](C)C(C)(C)C)c4)cc23)CC1` [Example 311, 3-[1-(ethylsulfonyl)-4-piperidinyl]-5-[3-({[(1R)-1,2,2-trimethylpropyl]amino}methyl)phenyl]-1H-indole-7-carboxamide], the IC50 in test [1] is at most 10 µM; in test [2], at most 1.5 µM.
On the same counts, the results for `CCS(=O)(=O)N1CCC(c2c[nH]c3c(C(N)=O)cc(-c4cc(F)cc(CNC[C@@H]5CCCO5)c4)cc23)CC1` [Example 312, 3-[1-(ethylsulfonyl)-4-piperidinyl]-5-[3-fluoro-5-({[(2S)-tetrahydro-2-furanylmethyl]amino}methyl)phenyl]-1H-indole-7-carboxamide trifluoroacetate] are at most 10 µM and at most 1.5 µM.
With `CCS(=O)(=O)N1CCC(c2c[nH]c3c(C(N)=O)cc(-c4cc(F)cc(CNC[C@H]5CCCO5)c4)cc23)CC1` [Example 313, 3-[1-(ethylsulfonyl)-4-piperidinyl]-5-[3-fluoro-5-({[(2R)-tetrahydro-2-furanylmethyl]amino}methyl)phenyl]-1H-indole-7-carboxamide trifluoroacetate], the values for the IC50 in test [1] and in test [2] were at most 10 µM and at most 1.5 µM, respectively.
In the case of `CCS(=O)(=O)N1CCC(c2c[nH]c3c(C(N)=O)cc(-c4cc(F)cc(CN[C@@H](C)C(C)C)c4)cc23)CC1` [Example 314, 5-[3-({[(1S)-1,2-dimethylpropyl]amino}methyl)-5-fluorophenyl]-3-[1-(ethylsulfonyl)-4-piperidinyl]-1H-indole-7-carboxamide], the IC50 in test [1] was at most 10 µM; in test [2], at most 1.5 µM.
